Results from PMC7531004, “Discovery of gramicidin A analogues with altered activities by multidimensional screening of a one-bead-one-compound library” (Nature Communications, 2020).
Where a SMILES comes first, the peptide text is derived from it. [ ]: non-standard residue; d: D form. The star is where a group is joined. NHCH2CH2OH = OCCN*; For = O=C*

Key:
[1] = cell viability/%
How it was run: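 Peptide stocks diluted 250× in growth medium; P388 cells 1 × 10^4 cells/mL final; 37 °C, 5% CO2, 92 h. WST-1 + 1-methoxy PMS, 4 h, A415. Output: % viability.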

[2] = H+/Na+ transport assay of bead-derived peptides (one-point); assay type: biochemical; design: key: relative activity; mean of two control wells = 1.00; settings: bead-derived peptide solution, EYPC/EYPG LUVs;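 further: relative to parent gramicidin A activity set to 1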
How it was run: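 Pyranine (1.0 mM)-loaded LUVs containing egg yolk phosphatidylglycerol were prepared by film hydration, sonication and extrusion, then mixed with diluted bead-derived peptide in 96-well format and vortexed 30 min at room temperature. Fluorescence was normalized between untreated LUVs (0%) and Triton X-100 lysis (100%).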

[3] = tested on: Streptococcus pyogenes SSI-9; experiment: Antibacterial activity assay of bead-derived peptides (three concentrations); assay type: cell-based; design: key: +++: inhibition by the 640-fold diluted peptide solution; ++: inhibition by the 160-fold diluted solution; +: inhibition by the 40-fold diluted solution; -: no inhibition; settings: S. pyogenes, bead-derived peptide solution, three concentrations
How it was run: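 First, each peptide stock was diluted 4- and 16-fold in DMSO; next, the three solutions were mixed with S. pyogenes SSI-9 suspension (2 × 10^5 CFU) in cation-adjusted Mueller Hinton Broth plus 5% laked horse blood; finally, plates stood 18 h at 37 °C before checking for grown-cell precipitation.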

CC(C)C[C@@H](NC(=O)[C@H](C)NC(=O)CNC(=O)[C@@H](NC=O)C(C)C)C(=O)N[C@@H](C)C(=O)N[C@H](CC(C)C)C(=O)N[C@H](C(=O)N[C@H](CC(C)C)C(=O)N[C@@H](Cc1c[nH]c2ccccc12)C(=O)N[C@@H](C(=O)N[C@@H](Cc1c[nH]c2ccccc12)C(=O)N[C@@H](C(=O)N[C@@H](Cc1c[nH]c2ccccc12)C(=O)N[C@H](CC(C)C)C(=O)N[C@@H](Cc1c[nH]c2ccccc12)C(=O)NCCO)[C@H](C)O)[C@H](C)O)C(C)C [compound 3244] (For-VGA[dL]A[dL]V[dL]W[dT]W[dT]W[dL]W-NHCH2CH2OH)
viability [1]: 100%
H+/Na+ transport activity normalized against the value of 1 (1.00) [2]: 1.03
antibacterial activity [3]: -

CC(C)C[C@@H](NC(=O)[C@H](Cc1c[nH]c2ccccc12)NC(=O)[C@@H](CC(C)C)NC(=O)[C@H](Cc1c[nH]c2ccccc12)NC(=O)[C@H](NC(=O)[C@H](Cc1c[nH]c2ccccc12)NC(=O)[C@H](NC(=O)[C@@H](NC(=O)[C@H](NC(=O)[C@H](C)NC(=O)[C@H](NC(=O)[C@H](C)NC(=O)CNC(=O)[C@@H](NC=O)C(C)C)C(C)C)C(C)C)C(C)C)[C@H](C)O)[C@H](C)O)C(=O)N[C@@H](Cc1c[nH]c2ccccc12)C(=O)NCCO [compound 12293] (For-VGA[dV]A[dV]V[dT]W[dT]W[dL]W[dL]W-NHCH2CH2OH)
viability [1]: 100%
H+/Na+ transport activity normalized against the value of 1 (1.00) [2]: 1.00
antibacterial activity [3]: -

CC(C)C[C@@H](NC(=O)[C@H](C)NC(=O)CNC(=O)[C@@H](NC=O)C(C)C)C(=O)N[C@@H](C)C(=O)N[C@@H](C(=O)N[C@H](C(=O)N[C@H](CC(C)C)C(=O)N[C@@H](Cc1c[nH]c2ccccc12)C(=O)N[C@H](CC(C)C)C(=O)N[C@@H](Cc1c[nH]c2ccccc12)C(=O)N[C@H](CC(C)C)C(=O)N[C@@H](Cc1c[nH]c2ccccc12)C(=O)N[C@@H](C(=O)N[C@@H](Cc1c[nH]c2ccccc12)C(=O)NCCO)[C@H](C)O)C(C)C)C(C)C [compound 1975] (For-VGA[dL]A[dV]V[dL]W[dL]W[dL]W[dT]W-NHCH2CH2OH)
viability [1]: 100%
H+/Na+ transport activity normalized against the value of 1 (1.00) [2]: 1.04
antibacterial activity [3]: +

CC(C)C[C@@H](NC(=O)[C@H](C)NC(=O)CNC(=O)[C@@H](NC=O)C(C)C)C(=O)N[C@@H](C)C(=O)N[C@@H](C(=O)N[C@H](C(=O)N[C@@H](C(=O)N[C@@H](Cc1c[nH]c2ccccc12)C(=O)N[C@@H](C(=O)N[C@@H](Cc1c[nH]c2ccccc12)C(=O)N[C@H](CC(C)C)C(=O)N[C@@H](Cc1c[nH]c2ccccc12)C(=O)N[C@@H](C(=O)N[C@@H](Cc1c[nH]c2ccccc12)C(=O)NCCO)C(C)C)[C@H](C)O)C(C)C)C(C)C)C(C)C [compound 5657] (For-VGA[dL]A[dV]V[dV]W[dT]W[dL]W[dV]W-NHCH2CH2OH)
viability [1]: 81.3%
H+/Na+ transport activity normalized against the value of 1 (1.00) [2]: 1.09
antibacterial activity [3]: -

CC(C)C[C@@H](NC(=O)[C@H](C)NC(=O)[C@H](NC(=O)[C@H](C)NC(=O)CNC(=O)[C@@H](NC=O)C(C)C)C(C)C)C(=O)N[C@H](C(=O)N[C@H](CC(C)C)C(=O)N[C@@H](Cc1c[nH]c2ccccc12)C(=O)N[C@@H](C(=O)N[C@@H](Cc1c[nH]c2ccccc12)C(=O)N[C@@H](C(=O)N[C@@H](Cc1c[nH]c2ccccc12)C(=O)N[C@H](CC(C)C)C(=O)N[C@@H](Cc1c[nH]c2ccccc12)C(=O)NCCO)C(C)C)[C@H](C)O)C(C)C [compound 5572] (For-VGA[dV]A[dL]V[dL]W[dT]W[dV]W[dL]W-NHCH2CH2OH)
viability [1]: 100%
H+/Na+ transport activity normalized against the value of 1 (1.00) [2]: 1.24
antibacterial activity [3]: +

CNC(=O)C[C@@H](NC(=O)[C@H](Cc1c[nH]c2ccccc12)NC(=O)[C@H](NC(=O)[C@H](Cc1c[nH]c2ccccc12)NC(=O)[C@@H](CC(C)C)NC(=O)[C@H](Cc1c[nH]c2ccccc12)NC(=O)[C@@H](CC(C)C)NC(=O)[C@@H](NC(=O)[C@H](NC(=O)[C@H](C)NC(=O)[C@H](NC(=O)[C@H](C)NC(=O)CNC(=O)[C@@H](NC=O)C(C)C)C(C)C)C(C)C)C(C)C)C(C)C)C(=O)N[C@@H](Cc1c[nH]c2ccccc12)C(=O)NCCO [compound 3903] (For-VGA[dV]A[dV]V[dL]W[dL]W[dV]W[dD](NHMe)W-NHCH2CH2OH)
viability [1]: 100%
H+/Na+ transport activity normalized against the value of 1 (1.00) [2]: 1.10
antibacterial activity [3]: -

CNC(=O)C[C@@H](NC(=O)[C@@H](NC(=O)[C@@H](CC(C)C)NC(=O)[C@H](C)NC(=O)[C@@H](CC(C)C)NC(=O)[C@H](C)NC(=O)CNC(=O)[C@@H](NC=O)C(C)C)C(C)C)C(=O)N[C@@H](Cc1c[nH]c2ccccc12)C(=O)N[C@H](CC(C)C)C(=O)N[C@@H](Cc1c[nH]c2ccccc12)C(=O)N[C@@H](C(=O)N[C@@H](Cc1c[nH]c2ccccc12)C(=O)N[C@@H](C(=O)N[C@@H](Cc1c[nH]c2ccccc12)C(=O)NCCO)C(C)C)C(C)C [compound 10379] (For-VGA[dL]A[dL]V[dD](NHMe)W[dL]W[dV]W[dV]W-NHCH2CH2OH)
viability [1]: 100%
H+/Na+ transport activity normalized against the value of 1 (1.00) [2]: 1.08
antibacterial activity [3]: -

CC(C)[C@H](NC=O)C(=O)NCC(=O)N[C@@H](C)C(=O)N[C@@H](C(=O)N[C@@H](C)C(=O)N[C@@H](C(=O)N[C@H](C(=O)N[C@@H](C(=O)N[C@@H](Cc1c[nH]c2ccccc12)C(=O)N[C@@H](C(=O)N[C@@H](Cc1c[nH]c2ccccc12)C(=O)N[C@@H](C(=O)N[C@@H](Cc1c[nH]c2ccccc12)C(=O)N[C@@H](C(=O)N[C@@H](Cc1c[nH]c2ccccc12)C(=O)NCCO)C(C)C)C(C)C)C(C)C)C(C)C)C(C)C)C(C)C)C(C)C [compound 4223] (For-VGA[dV]A[dV]V[dV]W[dV]W[dV]W[dV]W-NHCH2CH2OH)
viability [1]: 95.6%
H+/Na+ transport activity normalized against the value of 1 (1.00) [2]: 1.09
antibacterial activity [3]: +

CC(C)C[C@@H](NC(=O)[C@H](C)NC(=O)[C@H](NC(=O)[C@H](C)NC(=O)CNC(=O)[C@@H](NC=O)C(C)C)[C@H](C)O)C(=O)N[C@H](C(=O)N[C@H](CC(C)C)C(=O)N[C@@H](Cc1c[nH]c2ccccc12)C(=O)N[C@H](CC(C)C)C(=O)N[C@@H](Cc1c[nH]c2ccccc12)C(=O)N[C@H](CC(C)C)C(=O)N[C@@H](Cc1c[nH]c2ccccc12)C(=O)N[C@@H](C(=O)N[C@@H](Cc1c[nH]c2ccccc12)C(=O)NCCO)C(C)C)C(C)C [compound 3778] (For-VGA[dT]A[dL]V[dL]W[dL]W[dL]W[dV]W-NHCH2CH2OH)
viability [1]: 100%
H+/Na+ transport activity normalized against the value of 1 (1.00) [2]: 1.08
antibacterial activity [3]: -

CC(C)C[C@@H](NC(=O)[C@H](Cc1c[nH]c2ccccc12)NC(=O)[C@@H](CC(C)C)NC(=O)[C@H](Cc1c[nH]c2ccccc12)NC(=O)[C@@H](CC(C)C)NC(=O)[C@H](Cc1c[nH]c2ccccc12)NC(=O)[C@H](NC(=O)[C@@H](NC(=O)[C@H](NC(=O)[C@H](C)NC(=O)[C@H](NC(=O)[C@H](C)NC(=O)CNC(=O)[C@@H](NC=O)C(C)C)C(C)C)[C@H](C)O)C(C)C)C(C)C)C(=O)N[C@@H](Cc1c[nH]c2ccccc12)C(=O)NCCO [compound 13151] (For-VGA[dV]A[dT]V[dV]W[dL]W[dL]W[dL]W-NHCH2CH2OH)
viability [1]: 100%
H+/Na+ transport activity normalized against the value of 1 (1.00) [2]: 1.01
antibacterial activity [3]: -

CC(C)C[C@@H](NC(=O)[C@H](C)NC(=O)CNC(=O)[C@@H](NC=O)C(C)C)C(=O)N[C@@H](C)C(=O)N[C@@H](C(=O)N[C@H](C(=O)N[C@@H](C(=O)N[C@@H](Cc1c[nH]c2ccccc12)C(=O)N[C@@H](C(=O)N[C@@H](Cc1c[nH]c2ccccc12)C(=O)N[C@@H](C(=O)N[C@@H](Cc1c[nH]c2ccccc12)C(=O)N[C@@H](C(=O)N[C@@H](Cc1c[nH]c2ccccc12)C(=O)NCCO)C(C)C)C(C)C)C(C)C)C(C)C)C(C)C)[C@H](C)O [compound 5343] (For-VGA[dL]A[dT]V[dV]W[dV]W[dV]W[dV]W-NHCH2CH2OH)
viability [1]: 100%
H+/Na+ transport activity normalized against the value of 1 (1.00) [2]: 1.33
antibacterial activity [3]: -

CNC(=O)C[C@@H](NC(=O)[C@@H](NC(=O)[C@H](NC(=O)[C@H](C)NC(=O)[C@H](NC(=O)[C@H](C)NC(=O)CNC(=O)[C@@H](NC=O)C(C)C)C(C)C)C(C)C)C(C)C)C(=O)N[C@@H](Cc1c[nH]c2ccccc12)C(=O)N[C@H](CC(C)C)C(=O)N[C@@H](Cc1c[nH]c2ccccc12)C(=O)N[C@@H](C(=O)N[C@@H](Cc1c[nH]c2ccccc12)C(=O)N[C@@H](C(=O)N[C@@H](Cc1c[nH]c2ccccc12)C(=O)NCCO)C(C)C)C(C)C [compound 5536] (For-VGA[dV]A[dV]V[dD](NHMe)W[dL]W[dV]W[dV]W-NHCH2CH2OH)
viability [1]: 100%
H+/Na+ transport activity normalized against the value of 1 (1.00) [2]: 1.45
antibacterial activity [3]: -

CC(C)C[C@@H](NC(=O)[C@H](Cc1c[nH]c2ccccc12)NC(=O)[C@H](NC(=O)[C@H](Cc1c[nH]c2ccccc12)NC(=O)[C@H](NC(=O)[C@@H](NC(=O)[C@H](NC(=O)[C@H](C)NC(=O)[C@H](NC(=O)[C@H](C)NC(=O)CNC(=O)[C@@H](NC=O)C(C)C)C(C)C)C(C)C)C(C)C)[C@H](C)O)C(C)C)C(=O)N[C@@H](Cc1c[nH]c2ccccc12)C(=O)N[C@@H](C(=O)N[C@@H](Cc1c[nH]c2ccccc12)C(=O)NCCO)C(C)C [compound 10506] (For-VGA[dV]A[dV]V[dT]W[dV]W[dL]W[dV]W-NHCH2CH2OH)
viability [1]: 91.3%
H+/Na+ transport activity normalized against the value of 1 (1.00) [2]: 1.18
antibacterial activity [3]: -
